# Reference: paper PMC13489962, “Small-molecule modulation of β-arrestins” (Nature, 2026)
# How the values were obtained:
# [1] = test system: βarr1/2; assay: DSF with IP6 and/or Cmpd-5; format: binding
# Method: DSF assay was performed to identify β-arrestin-binding small molecules from the drug-like compound library (DDLC) described above. The screen was conducted using the StepOnePlus Real-Time PCR System (Applied Biosystems) with the fluorescent reporter probe SYPRO Orange (Thermo Fisher Scientific) in a 96-well format. Proteins were buffered in 20 mM HEPES (pH 7.5) with 100 mM NaCl. Small molecules (100 μM) were screened with either βARR1 or βARR2 (5 μM). DMSO was used as a vehicle control, and V2Rpp (50 μM) served as a positive control.
# For DSF experiments involving the three positive control ligands (V2Rpp, IP6 and heparin, each at 50 μM) binding to β-arrestins, HEPES buffer was used as the vehicle control. Excitation and emission filters for SYPRO Orange were set to 475 nm and 580 nm, respectively. The temperature was increased by 0.5 °C every 30 s, from 25 °C to 99 °C, with fluorescence readings taken at each interval. Raw DSF data were analysed using Applied Biosystems Protein Thermal Shift Software. Fluorescence intensities were plotted as a function of temperature, and the midpoint of transition, or melting temperature (Tm), was calculated by plotting the first derivative of fluorescence emission as a function of temperature (dF/dT). […]
# [2] = test system: βARR2 conformation (AT1R); assay: Intramolecular FlAsH-BRET βARR2 conformational sensors; format: cell-based, human; conditions: 50 μM, 15 min; AngII 10 μM
# Method: Intramolecular FlAsH-BRET assays[72] were performed in HEK293 βARR1/2-knockout cells transiently transfected using FuGENE4K with 2 μg total DNA per 15 cm dish. Cells were transfected with 1.5 μg of pcDNA3.1 encoding human AT1R and 0.4 μg of a plasmid encoding the indicated RLuc–β-arrestin2–FlAsH biosensors. Twenty-four hours after transfection, cells were replated into poly-D-lysine-coated 96-well white, clear-bottom plates at 100,000 cells per well in MEM supplemented with 10% FBS. Forty-eight hours after transfection, cells were labelled with FlAsH-EDT2 (FlAsH II In-Cell Tetracysteine Detection Kit, Thermo Fisher) at a final concentration of 2.5 μM for 30 min at room temperature. Following labelling, cells were washed twice with BAL wash buffer (250 μM 2,3-dimercapto-1-propanol in HBSS), then equilibrated in HBSS supplemented with 20 mM HEPES (pH 7.4). Modulators were applied at 50 μM for 15 min, followed by addition of Prolume Purple substrate (Nanolight Technologies). Cells were then stimulated with 10 μM angiotensin II. BRET signals were recorded using a CLARIOstar Plus plate reader in kinetic mode (480 nm donor, 530 nm acceptor) for 30 min, and peak values were used for quantification. ΔNet BRET was calculated by subtracting baseline values from each condition, including agonist alone, modulator alone, or agonist plus modulator.
smiles,measurement,setting,value
"C=C1C(=O)[C@]23[C@H](O)[C@H]1CC[C@H]2[C@@]12CO[C@]3(O)[C@@H](O)[C@@H]1C(C)(C)CC[C@@H]2O [Cmpd-5, (1S,4aR,5S,6S,6aR,9S,11aS,11bS,14R)-1,5,6,14-tetrahydroxy−4,4-dimethyl-8-methylenedecahydro-1H-6,11b-(epoxymethano)-6a,9-methanocyclohepta[a]naphthalen-7(8H)-one]",effect on IP6-stabilized β-arrestin state by DSF,[1],shifts βarr1/2 away from the IP6-stabilized active state
same,effect on AngII-induced active βarr2 FlAsH-BRET signature,[2],largely attenuates this active signature
